Source: patent publication US20240254118A1, “PRMT5 INHIBITORS AND USES THEREOF” (Gilead Sciences, Inc., priority 2022, published 2024)
Read-outs that look alike come from different tables or passages of the source.

Assays:
[1] = tested on: SDMA signal (PRMT5 inhibition) in HCT116 MTAP-deleted cells; assay: Symmetric di-methyl arginine image-based high content screen assay (SDMA assay), HCT116 MTAP-deleted; assay type: cell-based; conditions: for EC50: Homo sapiens, HCT-116, 72 h, read-out: EC50 (SDMA assay); for EC50 selectivity (SDMA assay): taken as HCT116 WT versus MTAP-deleted
Method: Symmetric di-methyl arginine image-based high content screen assay (SDMA assay) was performed in HCT116 WT and HCT116 MTAP-deleted cell lines to measure Symmetric Di-methyl Arginine (SDMA) signal reduction after selective PRMT5 inhibition in the MTAP-deleted cells.
Briefly, the same compound plates were generated as mentioned in the previous section of Cell viability assay on Day −1.
On Day 3, the cells were fixed by adding 45 μl of 8% neutralized formalin solution to each well using EL460 liquid dispenser 5 μl cassette and the cells were incubated for 30 minutes at room temperature. The formalin solution was washed off with […] phosphate buffered saline (dPBS), the 0.1% Triton X-100 solution in dPBS was used to permeabilize the cells for 15 minutes at room temperature. The triton solution was aspirated, 50 μl of Odyssey Blocking buffer+0.05% Tween20 was added and the plate was incubated at room temperature for 30 minutes.
The blocking solution was removed, a 20 μl of SDMA antibody (Cell Signaling Technology, Cat no. 13222) diluted 1:500 in Odyssey Blocking buffer+0.05% Tween20 was added and the plate was incubated at 4° C. overnight. Next day, the primary SDME antibody solution was washed from each well three times with 0.05% Tween20 in dPBS (PBST).
A 30 μl of the secondary antibody, a Goat anti-Rabbit Alexa Fluor Plus 488 (Invitrogen, Cat no. PIA32731) was diluted 1:500 in Odyssey Blocking buffer+0.05% Tween20 and the plate was incubated for 1.5 hours in dark at room temperature. The secondary antibody solution was removed, 30 μl of 5 mg/ml DAPI solution diluted 1:2000 in dPBS was added and the plate was incubated for 30 minutes in dark at room temperature. The DAPI solution was aspirated and the wells were washed six times with dPBS.
The SDMA signal and DAPI signal per cell were counted using a Cellomics CX7 LZR instrument reading under 488 and 405 nm laser, respectively. The SDMA signal was quantified by mean average intensity per cell from Alexa Fluor Plus 488 after the cell was defined with DAPI.

[2] = tested on: HCT116 MTAP-deleted cells; assay: Cell viability assay (CellTiter-Glo, 7 days), HCT116 MTAP-deleted; conditions: Homo sapiens, HCT-116, 168 h
[3] = SDMA assay, 3 days of treatment, cell line not given, taken as HCT116 MTAP-deleted

Compound	EC50 [1, 3]	EC50 selectivity (SDMA assay) ([1]; SDMA assay)	CC50 [2]	EC50 [1]
C[C@H]1CN(N(Cc2ccc(C(F)(F)F)cn2)C(=O)c2ccc3nc(N)c4cnn(C)c4c3c2)C(=O)O1 (single isomer, unassigned) [Example 8]	< 1 nM	137	< 100 nM	–
Cn1ncc2c(N)nc3ccc(C(=O)N(Cc4ccc(C(F)(F)F)cn4)N4CCN(CC(F)(F)F)C4=O)cc3c21 [Example 4, 4-amino-1-methyl-N-(2-oxo-3-(2,2,2-trifluoroethyl)imidazolidin-1-yl)-N-((5-(trifluoromethyl)pyridin-2-yl)methyl)-1H-pyrazolo [4,3-c]quinoline-8-carboxamide]	1 to 5 nM	327	< 100 nM	–
CN1CCN(N(Cc2ccc(C(F)(F)F)cc2F)C(=O)c2ccc3nc(N)c4cnn(C)c4c3c2)C1=O [Example 7, 4-amino-N-(2-fluoro-4-(trifluoromethyl)benzyl)-1-methyl-N-(3-methyl-2-oxoimidazolidin-1-yl)-1H-pyrazolo[4,3-c]quinoline-8-carboxamide]	< 1 nM	62	< 100 nM	–
Cn1ncc2c(N)nc3ccc(C(=O)N(Cc4ccc(C(F)(F)F)cn4)N4CC(F)(F)CCC4=O)cc3c21 [Example 13, 4-amino-N-(5,5-difluoro-2-oxo-1-piperidyl)-1-methyl-N-[[5-(trifluoromethyl)-2-pyridyl]methyl]pyrazolo[4,3-c]quinoline-8-carboxamide]	< 1 nM	128	< 100 nM	–
CN(C(=O)Oc1ccccc1)N(Cc1ccc(C(F)(F)F)cn1)C(=O)c1ccc2nc(N)c3cnn(C)c3c2c1 [Example 14, Phenyl 2-(4-amino-1-methyl-1H-pyrazolo[4,3-c]quinoline-8-carbonyl)-1-methyl-2-((5-(trifluoromethyl)pyridin-2-yl)methyl)hydrazine-1-carboxylate]	–	148	< 100 nM	1 to 5 nM
Cn1ncc2c(N)nc3ccc(C(=O)N(Cc4ccc(C(F)(F)F)cn4)N4CC5(CCC5)OC4=O)cc3c21 [Example 17, 4-amino-1-methyl-N-(6-oxo-5-oxa-7-azaspiro[3.4]octan-7-yl)-N-[[5-(trifluoromethyl)-2-pyridyl]methyl]pyrazolo[4,3-c]quinoline-8-carboxamide]	< 1 nM	502	< 100 nM	–
CC(=O)N(C)N(Cc1ccn(-c2ccccc2F)n1)C(=O)c1ccc2nc(N)c3cnn(C)c3c2c1 [Example 436, N′-acetyl-4-amino-N-((1-(2-fluorophenyl)-1H-pyrazol-3-yl)methyl)-N′,1-dimethyl-1H-pyrazolo[4,3-c]quinoline-8-carbohydrazide]	–	–	< 100 nM	–
CC(=O)N(C)N(Cc1ccn(-c2ccc(F)cc2F)n1)C(=O)c1ccc2nc(N)c3cnn(C)c3c2c1 [Example 440, N′-acetyl-4-amino-N-((1-(2,4-difluorophenyl)-1H-pyrazol-3-yl)methyl)-N′,1-dimethyl-1H-pyrazolo[4,3-c]quinoline-8-carbohydrazide]	–	–	< 100 nM	–
CC(=O)N(C)N(Cc1ccn(-c2c(F)cccc2F)n1)C(=O)c1ccc2nc(N)c3cnn(C)c3c2c1 [Example 441, N′-acetyl-4-amino-N-((1-(2,6-difluorophenyl)-1H-pyrazol-3-yl)methyl)-N′,1-dimethyl-1H-pyrazolo[4,3-c]quinoline-8-carbohydrazide]	–	–	< 100 nM	–
CN(C(=O)C1CC1)N(Cc1ncc(C(F)(F)F)cc1Cl)C(=O)c1ccc2nc(N)c3cnn(C)c3c2c1 [Example 446, 4-amino-N-((3-chloro-5-(trifluoromethyl)pyridin-2-yl)methyl)-N′-(cyclopropanecarbonyl)-N′,1-dimethyl-1H-pyrazolo[4,3-c]quinoline-8-carbohydrazide]	–	–	< 100 nM	–

More lines, main results first:

EC50 [1, 3]	EC50 selectivity (SDMA assay) ([1]; SDMA assay)	Compound	CC50 [2]	EC50 [1]
< 1 nM	180	C[C@@H]1CN(N(Cc2ccc(C(F)(F)F)cn2)C(=O)c2ccc3nc(N)c4cnn(C)c4c3c2)C(=O)O1 (single isomer, unassigned) [Example 9]	< 100 nM	–
< 1 nM	122	CC(=O)N(C)N(Cc1nc2cc(C(F)(F)F)ccc2s1)C(=O)c1ccc2nc(N)c3cnn(C)c3c2c1 [Example 1]	< 100 nM	–
< 1 nM	25	Cn1ncc2c(N)nc3ccc(C(=O)N(Cc4ccc(C(F)(F)F)cc4F)N4CCCCC4=O)cc3c21 [Example 2, 4-amino-N-(2-fluoro-4-(trifluoromethyl)benzyl)-1-methyl-N-(2-oxopiperidin-1-yl)-1H-pyrazolo[4,3-c]quinoline-8-carboxamide]	< 100 nM	–
< 1 nM	123	Cn1ncc2c(N)nc3ccc(C(=O)N(Cc4ccc(C(F)(F)F)cc4)N4CCCOC4=O)cc3c21 [Example 3, 4-amino-1-methyl-N-(2-oxo-1,3-oxazinan-3-yl)-N-(4-(trifluoromethyl)benzyl)-1H-pyrazolo[4,3-c]quinoline-8-carboxamide]	< 100 nM	–
< 1 nM	266	Cn1ncc2c(N)nc3ccc(C(=O)N(Cc4ccc(OC(F)F)cc4)N4CCCOC4=O)cc3c21 [Example 5, 4-amino-N-(4-(difluoromethoxy)benzyl)-1-methyl-N-(2-oxo-1,3-oxazinan-3-yl)-1H-pyrazolo[4,3-c]quinoline-8-carboxamide]	< 100 nM	–
< 1 nM	286	CC(=O)N(c1ccccc1)N(Cc1ccc(C(F)(F)F)cn1)C(=O)c1ccc2nc(N)c3cnn(C)c3c2c1 [Example 6, N′-acetyl-4-amino-1-methyl-N′-phenyl-N-((5-(trifluoromethyl)pyridin-2-yl)methyl)-1H-pyrazolo[4,3-c]quinoline-8-carbohydrazide]	< 100 nM	–
< 1 nM	180	Cn1ncc2c(N)nc3ccc(C(=O)N(Cc4ccc(C(F)(F)F)cn4)N4CCCOC4=O)cc3c21 [Example 10, 4-amino-1-methyl-N-(2-oxo-1,3-oxazinan-3-yl)-N-((5-(trifluoromethyl)pyridin-2-yl)methyl)-1H-pyrazolo[4,3-c]quinoline-8-carboxamide]	< 100 nM	–
< 1 nM	245	Cn1ncc2c(N)nc3ccc(C(=O)N(Cc4ccc(C(F)(F)F)cn4)N4C(=O)[C@H]5CC[C@@H]4C5)cc3c21 [Example 11, 4-amino-1-methyl-N-[(1R,4S)-3-oxo-2-azabicyclo[2.2.1]heptan-2-yl]-N-[[5-(trifluoromethyl)-2-pyridyl]methyl]pyrazolo[4,3-c]quinoline-8-carboxamide]	< 100 nM	–
1 to 5 nM	23	Cn1ncc2c(N)nc3ccc(C(=O)N(Cc4ccc(C(F)(F)F)c(F)c4)N4CCCC4=O)cc3c21 [Example 15, 4-amino-N-(3-fluoro-4-(trifluoromethyl)benzyl)-1-methyl-N-(2-oxopyrrolidin-1-yl)-1H-pyrazolo[4,3-c]quinoline-8-carboxamide]	< 100 nM	–
< 1 nM	306	COc1ccc(CN(C(=O)c2ccc3nc(N)c4cnn(C)c4c3c2)N(C)C(C)=O)c(F)c1 [Example 16, N′-acetyl-4-amino-N-(2-fluoro-4-methoxybenzyl)-N′,1-dimethyl-1H-pyrazolo[4,3-c]quinoline-8-carbohydrazide]	< 100 nM	–
< 1 nM	61	COc1nc(C(F)(F)F)ccc1CN(C(=O)c1ccc2nc(N)c3cnn(C)c3c2c1)N(C)C(C)=O [Example 18, N′-acetyl-4-amino-N-[[2-methoxy-6-(trifluoromethyl)-3-pyridyl]methyl]-N′, 1-dimethyl-pyrazolo[4,3-c]quinoline-8-carbohydrazide]	< 100 nM	–
< 1 nM	93	COc1cc(C(F)(F)F)ccc1CN(C(=O)c1ccc2nc(N)c3cnn(C)c3c2c1)N(C)C(C)=O [Example 19, N′-acetyl-4-amino-N-[[2-methoxy-4-(trifluoromethyl)phenyl]methyl]-N′,1-dimethyl-pyrazolo[4,3-c]quinoline-8-carbohydrazide]	< 100 nM	–
< 1 nM	143	Cn1ncc2c(N)nc3ccc(C(=O)N(Cc4ccc(C(F)(F)F)cn4)N4CCOCC4)cc3c21 [Example 20, 4-amino-1-methyl-N-morpholino-N-((5-(trifluoromethyl)pyridin-2-yl)methyl)-1H-pyrazolo[4,3-c]quinoline-8-carboxamide]	< 100 nM	–
